Results on 1 compound are retold here after patent US12344599B2, “Prodigiosin analogs and methods of use” (Institute For Cancer Research, priority 2016, dated 2025).

The subject of assay [1] is PUMA and DR5 in HT29 and HCT116 p53−/− cell lines. Description: Western blot of PUMA and DR5, comparison with regorafenib. It counts as cell-based, human. The settings on record: 4 μM, 24-hour time point. As for the experimental part: After treatment, protein lysates were collected for Western blot analysis. A total of […] of protein was used for SDS-PAGE. After primary and secondary antibody incubations, the signal was detected by a chemiluminescence detection kit, imaged by Syngene (Imgen Technologies). Antibodies for PUMA (for IHC), p53 (Santa Cruz Biotechnology), caspase 8, cleaved caspase 8, caspase 9, caspase 3, cleavage PARP, eIF2α, p-eIF2α (Ser51), CHOP, ATF4, DR5, FOXO3a, p-FOXO3a (Ser253), NF-κB p65, p-NF-κB p65 (Ser536), c-Jun, p-c-Jun (Ser63), JNK, p-JNK (Thr183/Tyr185), PUMA (for WB), c-Myc, phosphor-S62-cMyc (Cell Signaling Technology), Noxa, p21 (Calbiochem), p73 (Bethyl laboratories Inc), Ran (BD Biosciences), […] (Sigma).
Regorafenib is an FDA-approved drug for treatment of metastatic colorectal cancer, advanced gastrointestinal stromal tumors and hepatocellular carcinoma. Regorafenib inhibits ERK and leads to the induction of PUMA through the GSK3β/NF-κB axis and induces PUMA-mediated apoptosis in colon cancer cell lines (Chen et al., Clin Cancer Res, 2014, 20, 3472-3484). PG3-Oc was compared with regorafenib in the induction of PUMA and DR5. Regorafenib (40 μM and 24 hours treatment) was used as a control, as previously reported (Chen et al., Clin Cancer Res, 2014, 20, 3472-3484).
Background: A western blot detects proteins with antibodies after separation by electrophoresis.

Another assay concerns FaDu. Description: CellTiterGlo cell viability assay, FaDu. The format is cell-based. The settings on record: Homo sapiens, head & neck squamous cell carcinoma, p53 R248L, 72 hours. As for the experimental part: (§1) • 1) Cell lines: HT29, SW480, DLD-1, HCT116, and p53-null HCT116 cells, H1975, MDA-MD-231, U251, FaDu, CAL-27, PANC-1, Aspc-1, and MRC5 were obtained from the ATCC and cultured as recommended. Cells were regularly authenticated by bioluminescence, growth, and morphologic observation. The cells were routinely examined for Mycoplasma and all cell lines underwent STR authentication. • 2) Western blotting: After treatment, protein lysates were collected for Western blot analysis. 15 μg of protein was used for SDS-PAGE. After primary and secondary antibody incubations, the signal was detected by chemiluminescent detection kit, imaged by Syngene (Imgen Technologies). […] The cell viability was assessed by CellTiterGlo bioluminescent cell proliferation assay (Promega), following the manufacturer's protocol. Bioluminescence imaging was measured using the IVIS imager. Percentage of cell viability (mean±SEM) at each dose was calculated against the respective DMSO control. The IC50 values were determined from the sigmoidal dose-response curves using GraphPad Prims4. • 4) Caspase activity assay: Cells were seeded in 96-well plate (1×10^4 cells/well). […] The caspase 3/7 activity was assessed by Caspase-Glo® 3/7 Assay kit (Promega), following the manufacturer's protocol. Bioluminescence imaging was measured using the IVIS imager. […]

The subject of the next assay is MDA-MB-468. The experiment in a line: CellTiterGlo cell viability assay, MDA-MB-468. It counts as cell-based. The following applies: Homo sapiens; MDA-MB-468, breast cancer, p53 R273H, 72 hours.
The test system of assay [2] is ATF4 and CHOP in HCT116 p53−/− cells. The experiment in a line: Western blot of ATF4 and CHOP, HCT116 p53−/−. The format is cell-based, human. As for the experimental part: as §1
In assay [3] the test system is human cancer cells with mutant p53. Description: CellTiterGlo cell viability assay, panel of cancer cell lines. It counts as cell-based. As to the method:
as §1
(In ATP-based viability assays light output follows the ATP content of the culture.)

Another assay concerns CCD 841 Con. Description: CellTiterGlo cell viability assay, CCD 841 Con normal colon cells. The following applies: Homo sapiens, non-transformed colorectal epithelial cells, p53 WT, 72 hours. It counts as cell-based. As for the experimental part: Cells were seeded in 96-well plates (6×10^3 cells/well). Cells were treated with different concentrations of compounds or dimethyl sulfoxide (DMSO) as a control for 72 hours. The cell viability was assessed by CellTiterGlo bioluminescent cell proliferation assay (Promega), following the manufacturer's protocol. Bioluminescence imaging was measured using the IVIS imager. Percentage of cell viability (mean±SEM) at each dose was calculated against the respective DMSO control. The IC50 values were determined from the sigmoidal dose-response curves using GraphPad Prism.

Entries after “also recorded” stand apart in the source; their conditions may differ.

The term IC50 denotes the concentration at which inhibition is half-maximal. Low values mean inhibition by little substance, high ones a need for much substance. Consider `CCCCCCCCOC(=O)CCc1c(C)[nH]c(/C=C2\N=C(c3ccc[nH]3)C=C2OC)c1C` [PG3-Oc, Octyl (Z)-3-(5-((4′-methoxy-1H,5′H-[2,2′-bipyrrol]-5′-ylidene)methyl)-2,4-dimethyl-1H-pyrrol-3-yl)propanoate], for which the “level of PUMA and DR5 induced compared to 40 μM regorafenib” value in assay [1] is “much higher level of PUMA and DR5”. Further, the IC50 stood at 66 nM with FaDu, 97.6 nM in the assay with MDA-MB-468 and 375 nM in the assay on CCD 841 Con. In assay [2], the “concentration at which induction of ATF4 and CHOP occurred” value came to 1.25 µM. Further, the “potency for inhibition of cancer cell growth” value in assay [3] (HCT116 and SW480, 72 hours, comparison with prodigiosin and obatoclax) is “comparable with prodigiosin (P) and obatoclax (Ob); also recorded: comparable to prodigiosin and obatoclax”. Besides, the IC50 values entry in assay [3] (panel of human cancer cell lines with mutant p53, 72 hours) is “within the nano-molar range”.
